Results on 4 compounds are retold here after patent US7572814B2, “3,5-dibenzoyl-4-phenyl-piperidine anti-cancer compounds” (Cytokinetics, Incorporated, priority 2005, dated 2009).

For orientation: GI50 means the concentration giving 50% growth inhibition.

For one test, the system named is A549 cells. The conditions noted are these: data provided by National Cancer Institute; cited from earlier work.
Test [1] concerns SKOV-3 human ovarian carcinoma. In words: Tumor growth delay (TGD) study, established SKOV-3 tumors in athymic nude mice. The conditions noted are these: 30 mg/kg i.v. qod×5. It is filed as in vivo.
Experimental: Certain of the chemical entities described herein were evaluated for in vivo activity against SKOV-3 human ovarian carcinoma in a tumor growth delay (TGD) study. The study utilized eight groups (n=8) of athymic nude mice bearing established (63-144 mm3) SKOV-3 tumors on Day 1, and included a vehicle-treated tumor growth control group and a reference group treated with paclitaxel (30 mg/kg i.v. qod×5). A first chemical entity was evaluated at doses of 300 or 150 mg/kg administered intraperitoneally (i.p.) once daily and at 150 mg/kg administered i.p. twice daily. Doses were administered on study days 1 to 5 and 8 to 12. Tumors were measured twice weekly during the 60-day study. Each animal was euthanized when its tumor reached the endpoint volume of 1500 mm3 or on Day 60, whichever came first, and the time to endpoint (TTE) was calculated for each mouse. Treatment outcome was determined from percent tumor growth delay (% TGD), defined as the percent increase in median TTE of treated versus control mice, with differences in TTE values deemed significant at P □0.05 using logrank analysis. The results presented were calculated based on data acquired through day 33 of the study. The median TTE of the untreated control group was 20.8 days.
A second chemical entity was similarly evaluated at 500 mg/kg administered i.p. once daily.

For `O=c1[nH]cc(F)c(=O)[nH]1` [5-fluorouracil], in the test with A549 cells, the GI50 was 1000 nM.

Take `COc1cccc2c1C(=O)c1c(O)c3c(c(O)c1C2=O)C[C@@](O)(C(=O)CO)C[C@@H]3O[C@H]1C[C@H](N)[C@H](O)[C@H](C)O1` [doxorubicin]: the 50% growth inhibitory concentration (GI50) with A549 cells is 63 nM.

Turning to `NC(=O)NO` [hydroxyurea], the GI50 in the test on A549 cells is 500000 nM.

Regarding `CC(=O)O[C@H]1C(=O)[C@@]2(C)[C@H]([C@H](OC(=O)c3ccccc3)[C@]3(O)C[C@H](OC(=O)[C@H](O)[C@@H](NC(=O)c4ccccc4)c4ccccc4)C(C)=C1C3(C)C)[C@]1(OC(C)=O)CO[C@@H]1C[C@@H]2O` [paclitaxel], the GI50 in the test on A549 cells was 4 nM. For the same compound, in test [1] (data through day 33, statistically significant), the “percent tumor growth delay (% TGD)” value stood at 58%. Besides, the “tumor growth delay (T-C)” value in test [1] (maximum possible in this study, untreated control median TTE 20.8 days) was 12.2 days.
